The target of the assay is PI3Kδ (Homo sapiens (Human), UniProt O00329). The assay is classed as biochemical. The settings on record: PI3Kδ Alphascreen assay. A general note: In Alpha technology, singlet oxygen from a donor bead excites a nearby acceptor bead.

pKi: −log10 of the molar value.

As usually defined, the pKi is the Ki on a negative log10 scale, so that one unit is a factor of ten. Lower therefore signals a high Ki.

Chain of PI3Kδ (O00329 whole entry): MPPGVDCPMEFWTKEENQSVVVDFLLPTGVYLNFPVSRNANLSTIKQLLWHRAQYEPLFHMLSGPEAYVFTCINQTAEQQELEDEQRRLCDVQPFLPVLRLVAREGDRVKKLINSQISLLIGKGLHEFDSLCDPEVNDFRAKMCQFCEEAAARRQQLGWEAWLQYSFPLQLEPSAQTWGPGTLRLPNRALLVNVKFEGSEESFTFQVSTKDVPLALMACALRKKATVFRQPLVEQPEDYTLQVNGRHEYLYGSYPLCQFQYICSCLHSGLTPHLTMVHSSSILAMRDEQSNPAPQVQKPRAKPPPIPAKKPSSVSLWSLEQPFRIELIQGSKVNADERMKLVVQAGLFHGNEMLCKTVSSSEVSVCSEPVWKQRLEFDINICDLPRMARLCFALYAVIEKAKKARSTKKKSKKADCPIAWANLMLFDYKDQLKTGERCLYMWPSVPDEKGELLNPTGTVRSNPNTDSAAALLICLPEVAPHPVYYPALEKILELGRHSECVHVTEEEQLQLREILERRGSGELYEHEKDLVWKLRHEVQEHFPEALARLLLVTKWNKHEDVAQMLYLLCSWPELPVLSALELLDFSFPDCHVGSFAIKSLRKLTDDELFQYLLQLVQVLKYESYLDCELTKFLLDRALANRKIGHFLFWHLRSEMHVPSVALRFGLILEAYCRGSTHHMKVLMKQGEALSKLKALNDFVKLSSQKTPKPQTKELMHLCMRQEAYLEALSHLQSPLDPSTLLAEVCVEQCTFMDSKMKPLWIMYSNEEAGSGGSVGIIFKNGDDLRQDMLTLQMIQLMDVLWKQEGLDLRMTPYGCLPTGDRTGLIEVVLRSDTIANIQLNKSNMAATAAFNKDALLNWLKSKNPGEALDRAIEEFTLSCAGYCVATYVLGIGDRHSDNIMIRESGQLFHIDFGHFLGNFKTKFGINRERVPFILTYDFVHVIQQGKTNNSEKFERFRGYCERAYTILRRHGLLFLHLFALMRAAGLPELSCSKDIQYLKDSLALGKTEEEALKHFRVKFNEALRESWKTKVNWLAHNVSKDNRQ
Chain of PI3Kδ (P27986 whole entry partner): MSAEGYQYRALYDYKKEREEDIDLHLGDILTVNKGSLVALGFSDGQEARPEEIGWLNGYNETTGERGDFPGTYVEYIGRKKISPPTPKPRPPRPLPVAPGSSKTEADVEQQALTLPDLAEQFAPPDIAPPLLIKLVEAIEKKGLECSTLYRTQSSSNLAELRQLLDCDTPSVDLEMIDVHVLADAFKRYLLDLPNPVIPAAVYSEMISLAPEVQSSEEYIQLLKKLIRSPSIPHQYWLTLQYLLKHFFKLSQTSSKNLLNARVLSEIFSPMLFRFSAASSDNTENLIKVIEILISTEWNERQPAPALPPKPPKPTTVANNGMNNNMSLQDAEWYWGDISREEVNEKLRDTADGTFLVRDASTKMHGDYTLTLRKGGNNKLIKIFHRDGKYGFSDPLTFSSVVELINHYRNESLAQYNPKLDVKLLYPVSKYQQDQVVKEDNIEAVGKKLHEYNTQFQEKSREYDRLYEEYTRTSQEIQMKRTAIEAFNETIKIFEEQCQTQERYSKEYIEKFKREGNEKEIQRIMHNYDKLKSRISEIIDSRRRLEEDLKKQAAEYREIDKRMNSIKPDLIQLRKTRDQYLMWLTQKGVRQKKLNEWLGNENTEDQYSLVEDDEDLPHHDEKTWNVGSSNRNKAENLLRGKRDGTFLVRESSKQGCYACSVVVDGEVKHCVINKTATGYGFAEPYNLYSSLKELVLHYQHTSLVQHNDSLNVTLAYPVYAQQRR
Protocol: A PI3K Alphascreen® assay (PerkinElmer, Waltham, Mass.) was used to measure the activity of a panel of four phosphoinositide 3-kinases: PI3Kα, PI3Kβ, PI3Kγ, and PI3Kδ. Enzyme reaction buffer was prepared using sterile water (Baxter, Deerfield, Ill.) and 50 mM Tris HCl pH 7, 14 mM MgCl2, 2 mM sodium cholate, and 100 mM NaCl. 2 mM DTT was added fresh the day of the experiment. The Alphascreen buffer was made using sterile water and 10 mM Tris HCl pH 7.5, 150 mM NaCl, 0.10% Tween 20, and 30 mM EDTA. 1 mM DTT was added fresh the day of the experiment. Compound source plates used for this assay were 384-well Greiner clear polypropylene plates containing test compounds at 5 mM and diluted 1:2 over 22 concentrations. Columns 23 and 24 contained only DMSO as these wells comprised the positive and negative controls, respectively. Source plates were replicated by transferring 0.5 uL per well into 384-well Optiplates (PerkinElmer, Waltham, Mass.).
Each PI3K isoform was diluted in enzyme reaction buffer to 2× working stocks. PI3Kα was diluted to 1.6 nM, PI3Kβ was diluted to 0.8 nM, PI3Kγ was diluted to 15 nM, and PI3Kδ was diluted to 1.6 nM. PI(4,5)P2 (Echelon Biosciences, Salt Lake City, Utah) was diluted to 10 μM and ATP was diluted to 20 μM. This 2× stock was used in the assays for PI3Kα and PI3Kβ. For assay of PI3Kγ and PI3Kδ, PI(4,5)P2 was diluted to 10 μM and ATP was diluted to 8 μM to prepare a similar 2× working stock. Alphascreen reaction solutions were made using beads from the anti-GST Alphascreen kit (PerkinElmer, Waltham, Mass.). Two 4× working stocks of the Alphascreen reagents were made in Alphascreen reaction buffer. In one stock, biotinylated-IP4 (Echelon Biosciences, Salt Lake City, Utah) was diluted to 40 nM and streptavadin-donor beads were diluted to 80 μg/mL. In the second stock, PIP3-binding protein (Echelon Biosciences, Salt Lake City, Utah) was diluted to 40 nM and anti-GST-acceptor beads were diluted to 80 μg/mL.
Using a 384-well Multidrop (Titertek, Huntsville, Ala.), 10 μL/well of 2× enzyme stock was added to columns 1-24 of the assay plates for each isoform. 10 μL/well of the appropriate substrate 2× stock (containing 20 μM ATP for the PI3Kα and β assays and containing 8 μM ATP for the PI3Kγ and δ assays) was then added to Columns 1-24 of all plates. Plates were then incubated at room temperature for 20 minutes. In the dark, 10 μL/well of the donor bead solution was added to columns 1-24 of the plates to quench the enzyme reaction. The plates were incubated at room temperature for 30 minutes. Still in the dark, 10 μL/well of the acceptor bead solution was added to columns 1-24 of the plates. The plates were then incubated in the dark for 1.5 hours. The plates were read on an Envision multimode Plate Reader (PerkinElmer, Waltham, Mass.) using a 680 nm excitation filter and a 520-620 nm emission filter.

`Cc1c(-c2ccccn2)nc2cc(F)ccc2c1N1CC(C)(C)c2ccc(-c3nc(N)ncc3Cl)cc21` [5-chloro-4-(1-(7-fluoro-3-methyl-2-(2-pyridinyl)-4-quinolinyl)-3,3-dimethyl-2,3-dihydro-1H-indol-6-yl)-2-pyrimidinamine] showed a negative-log Ki (pKi) of 5.85.

Consider `Cc1c(-c2ccccn2)nc2cc(F)ccc2c1N1CC(C)(C)c2nc(C#N)c(N3CCOCC3)cc21` [1-(7-fluoro-3-methyl-2-(2-pyridinyl)-4-quinolinyl)-3,3-dimethyl-6-(4-morpholinyl)-2,3-dihydro-1H-pyrrolo[3,2-b]pyridine-5-carbonitrile], for which the pKi is 7.31. This pKi is 1.46 log units higher than that of the molecule before.

Molecule `Cc1c(N2CCCCC2=O)nc2cc(F)cc(F)c2c1N1CC2(CCOCC2)c2ncc(N3CCOCC3)cc21` [1-(5,7-difluoro-3-methyl-4-(6′-(4-morpholinyl)-2,3,5,6-tetrahydrospiro[pyran-4,3′-pyrrolo[3,2-b]pyridin]-1′(2′H)-yl)-2-quinolinyl)-2-piperidinone] had a pKi of 8.26.

`Cc1c(N2CCOC(C)(C)C2)nc2cc(F)cc(F)c2c1N1CC2(CCOCC2)c2ncc(N3CCOCC3)cc21` [1′-(2-(2,2-dimethyl-4-morpholinyl)-5,7-difluoro-3-methyl-4-quinolinyl)-6′-(4-morpholinyl)-1′,2,2′,3,5,6-hexahydrospiro[pyran-4,3′-pyrrolo[3,2-b]pyridine]] had a negative-log Ki (pKi) of 8.27.

`Cc1c(-c2ccccn2)nc2c(C)ccc(F)c2c1N1CC(C)(C)c2ncc(N3CCOCC3)cc21` [4-(3,3-dimethyl-6-(4-morpholinyl)-2,3-dihydro-1H-pyrrolo[3,2-b]pyridin-1-yl)-5-fluoro-3,8-dimethyl-2-(2-pyridinyl)quinoline] gave a pKi of 8.39.

Regarding `Cc1c(-c2ccccn2)nc2cnccc2c1N1CC2(CCOCC2)c2ncc(N3CCOCC3)cc21` [1′-(3-methyl-2-(2-pyridinyl)-1,7-naphthyridin-4-yl)-6′-(4-morpholinyl)-1′,2,2′,3,5,6-hexahydrospiro[pyran-4,3′-pyrrolo[3,2-b]pyridine]], the pKi is 7.51.

The molecule `Cc1c(-c2ccccc2F)nc2cc(Cl)ccc2c1N1CC2(CCOCC2)c2ccc(N3CCOCC3)cc21` [1-(7-chloro-2-(2-fluorophenyl)-3-methyl-4-quinolinyl)-6-(4-morpholinyl)-1,2,2′,3′,5′,6′-hexahydrospiro[indole-3,4′-pyran]] showed a pKi of 6.24.

In the case of `Cc1c(-c2cccc(F)c2)nc2ncccc2c1N1CC2(CCOCC2)c2ncc(N3CCOCC3)cc21` [1′-(2-(3-fluorophenyl)-3-methyl-1,8-naphthyridin-4-yl)-6′-(4-morpholinyl)-1′,2,2′,3,5,6-hexahydrospiro[pyran-4,3′-pyrrolo[3,2-b]pyridine]], the pKi was 7.56.

In turn, `Cc1c(-c2ccccc2S(C)(=O)=O)nc2cc(F)ccc2c1N1CC(C)(C)c2ncc(N3CCOCC3)cc21` [4-(3,3-dimethyl-6-(4-morpholinyl)-2,3-dihydro-1H-pyrrolo[3,2-b]pyridin-1-yl)-7-fluoro-3-methyl-2-(2-(methylsulfonyl)phenyl)quinoline] showed a pKi of 8.11.

On to `Cc1c(-c2cncc(F)c2)nc2cc(F)cc(F)c2c1N1CC(C)(C)c2ncc(N3CCOCC3)cc21` [4-(3,3-dimethyl-6-(4-morpholinyl)-2,3-dihydro-1H-pyrrolo[3,2-b]pyridin-1-yl)-5,7-difluoro-2-(5-fluoro-3-pyridinyl)-3-methylquinoline], for which the negative logarithm of the Ki (pKi) was 8.28.

The molecule `Cc1nc2ccc(Cl)cc2c(N2CC(C)(C)c3ccc(-c4cn[nH]c4)cc32)c1C` [6-chloro-4-(3,3-dimethyl-6-(1H-pyrazol-4-yl)-2,3-dihydro-1H-indol-1-yl)-2,3-dimethylquinoline] showed a pKi of 5.02.

Molecule `Cc1nc2ccc(Cl)cc2c(-n2ccc3c(C#N)cc(-c4ccncc4)cc32)c1C` [1-(6-chloro-2,3-dimethyl-4-quinolinyl)-6-(4-pyridinyl)-1H-indole-4-carbonitrile] gave a negative-log Ki (pKi) of 5.83.

`COc1cc(OC)c2nc(C)c(C)c(N3CC(C)(C)c4ccc(N5CCOCC5)cc43)c2c1` [4-(3,3-dimethyl-6-(4-morpholinyl)-2,3-dihydro-1H-indol-1-yl)-6,8-dimethoxy-2,3-dimethylquinoline] gave a pKi of 5.40.

For the molecule `Cc1c(-c2ccccc2F)nc2cc(F)ccc2c1N1CC2(CCOCC2)c2ccc(N3CCOCC3)cc21` [1-(7-fluoro-2-(2-fluorophenyl)-3-methyl-4-quinolinyl)-6-(4-morpholinyl)-1,2,2′,3′,5′,6′-hexahydrospiro[indole-3,4′-pyran]], the pKi was 7.60.

Molecule `CC(C)c1c(-c2ccccn2)nc2cc(F)ccc2c1N1CC(C)(C)c2ncc(N3CCOCC3)cc21` [4-(3,3-dimethyl-6-(4-morpholinyl)-2,3-dihydro-1H-pyrrolo[3,2-b]pyridin-1-yl)-7-fluoro-3-(1-methylethyl)-2-(2-pyridinyl)quinoline] gave a pKi of 8.23.

For the molecule `Cc1c(N2CCNCC2)nc2cc(F)cc(F)c2c1N1CC2(CCOCC2)c2ncc(N3CCOCC3)cc21` [1′-(5,7-difluoro-3-methyl-2-(1-piperazinyl)-4-quinolinyl)-6′-(4-morpholinyl)-1′,2,2′,3,5,6-hexahydrospiro[pyran-4,3′-pyrrolo[3,2-b]pyridine]], the pKi is 8.86.

With `Cc1c(-c2ccccc2F)nc2cccc(F)c2c1N1CCS(=O)(=O)c2ccc(N3CCOCC3)cc21` [4-(5-fluoro-2-(2-fluorophenyl)-3-methyl-4-quinolinyl)-6-(4-morpholinyl)-3,4-dihydro-2H-1,4-benzothiazine 1,1-dioxide], the negative logarithm of the Ki (pKi) was 7.63.

With `Cc1c(-c2ccccc2S(C)(=O)=O)nc2cc(F)cc(F)c2c1N1CC2(CCOCC2)c2ncc(N3CCOCC3)cc21` [1′-(5,7-difluoro-3-methyl-2-(2-(methylsulfonyl)phenyl)-4-quinolinyl)-6′-(4-morpholinyl)-1′,2,2′,3,5,6-hexahydrospiro[pyran-4,3′-pyrrolo[3,2-b]pyridine]], the pKi is 8.35.

On to `Cc1nc2ccc(Cl)cc2c(N2CCOc3ccc(N4CCOCC4)cc32)c1C` [4-(6-chloro-2,3-dimethyl-4-quinolinyl)-6-(4-morpholinyl)-3,4-dihydro-2H-1,4-benzoxazine], for which the pKi is 5.90.

Molecule `Cc1nc2ccc(Cl)cc2c(-n2ccc3c(C#N)cc(-c4cn[nH]c4)cc32)c1C` [1-(6-chloro-2,3-dimethyl-4-quinolinyl)-6-(1H-pyrazol-4-yl)-1H-indole-4-carbonitrile] gave a pKi of 5.97.

With `Cc1c(-c2ccccc2S(C)(=O)=O)nc2cc(F)ccc2c1N1CC(C)(C)c2ccc(N3CCOCC3)cc21` [4-(3,3-dimethyl-6-(4-morpholinyl)-2,3-dihydro-1H-indol-1-yl)-7-fluoro-3-methyl-2-(2-(methylsulfonyl)phenyl)quinoline], the pKi is 8.35.

In turn, `Cc1c(N2CCCC2=O)nc2cc(F)cc(F)c2c1N1CC2(CCOCC2)c2ncc(N3CCOCC3)cc21` [1-(5,7-difluoro-3-methyl-4-(6′-(4-morpholinyl)-2,3,5,6-tetrahydrospiro[pyran-4,3′-pyrrolo[3,2-b]pyridin]-1′(2′H)-yl)-2-quinolinyl)-2-pyrrolidinone] showed a pKi of 8.63.

`Cc1c(Nc2ccccn2)nc2cc(F)cc(F)c2c1N1CC(C)(C)c2ncc(N3CCOCC3)cc21` [4-(3,3-dimethyl-6-morpholino-2,3-dihydro-1H-pyrrolo[3,2-b]pyridin-1-yl)-5,7-difluoro-3-methyl-N-(pyridin-2-yl)quinolin-2-amine] showed a pKi of 7.77. Against the preceding molecule, the pKi is 0.86 log units lower.

With `Cc1c(-c2cncc(F)c2)nc2cnccc2c1N1CC(C)(C)c2ncc(N3CCOCC3)cc21` [4-(3,3-dimethyl-6-(4-morpholinyl)-2,3-dihydro-1H-pyrrolo[3,2-b]pyridin-1-yl)-2-(5-fluoro-3-pyridinyl)-3-methyl-1,7-naphthyridine], the pKi is 8.11.

On to `COc1cc2nc(C)c(C)c(N3CC(C)(C)c4ccc(N5CCOCC5)cc43)c2cc1Cl` [6-chloro-4-(3,3-dimethyl-6-(4-morpholinyl)-2,3-dihydro-1H-indol-1-yl)-7-methoxy-2,3-dimethylquinoline], for which the pKi is 6.71.

`Cc1c(N2CCCCC2)nc2cc(F)cc(F)c2c1N1CC(C)(C)c2ccc(N3CCOCC3)cc21` [4-(3,3-dimethyl-6-(4-morpholinyl)-2,3-dihydro-1H-indol-1-yl)-5,7-difluoro-3-methyl-2-(1-piperidinyl)quinoline] showed a pKi of 7.13.

For `Cc1cc(-c2ccc3c(c2)N(c2c(C)c(-c4ccccn4)nc4cc(F)ccc24)CC3(C)C)nc(N)n1` [4-(1-(7-fluoro-3-methyl-2-(2-pyridinyl)-4-quinolinyl)-3,3-dimethyl-2,3-dihydro-1H-indol-6-yl)-6-methyl-2-pyrimidinamine], the pKi is 6.35.

Molecule `Cc1nc2ccccc2c(N2CC(C)(C)c3ccc(N4CCOCC4)cc32)c1C` [4-(3,3-dimethyl-6-(4-morpholinyl)-2,3-dihydro-1H-indol-1-yl)-2,3-dimethylquinoline] showed a pKi of 6.44.

`Cc1c(N2CC(C)(C)CCC2=O)nc2cc(F)cc(F)c2c1N1CC2(CCOCC2)c2ncc(N3CCOCC3)cc21` [1-(5,7-difluoro-3-methyl-4-(6′-(4-morpholinyl)-2,3,5,6-tetrahydrospiro[pyran-4,3′-pyrrolo[3,2-b]pyridin]-1′(2′H)-yl)-2-quinolinyl)-5,5-dimethyl-2-piperidinone] showed a pKi of 8.57.

For `Cc1c(-c2ccccn2)nc2cc(F)ccc2c1N1CC2(CCOCC2)c2nc(Cl)c(N3CCOCC3)cc21` [5′-chloro-1′-(7-fluoro-3-methyl-2-(2-pyridinyl)-4-quinolinyl)-6′-(4-morpholinyl)-1′,2,2′,3,5,6-hexahydrospiro[pyran-4,3′-pyrrolo[3,2-b]pyridine]], the pKi was 7.88.

`Cc1nc2c(Cl)cccc2c(N2CC(C)(C)c3ccc(N4CCOCC4)cc32)c1C` [8-chloro-4-(3,3-dimethyl-6-(4-morpholinyl)-2,3-dihydro-1H-indol-1-yl)-2,3-dimethylquinoline]: the negative-log Ki (pKi) is 7.30.

For the molecule `Cc1c(-c2cc(F)cc(F)c2)nc2cnccc2c1N1CC2(CCOCC2)c2ncc(N3CCOCC3)cc21` [1′-(2-(3,5-difluorophenyl)-3-methyl-1,7-naphthyridin-4-yl)-6′-(4-morpholinyl)-1′,2,2′,3,5,6-hexahydrospiro[pyran-4,3′-pyrrolo[3,2-b]pyridine]], the pKi is 7.87. Compared with the last molecule, the pKi is 0.57 log units higher.

These data come from US8765940B2 (priority 2009, dated 2014).
